Source: ChEMBL document CHEMBL1148582, “Metal-mediated inhibition of Escherichia coli methionine aminopeptidase: structure-activity relationships and development of a novel scoring function for metal-ligand interactions” (J Med Chem, 2006)
pIC50: −log10 of the molar value. Activity calls are given as the source filed them. The rule behind the calls is not given here.

Tests used:
[1] = biological target: T1, Methionine aminopeptidase (Escherichia coli K-12, UniProt P0AE18); experiment: Inhibition of Co2+ loaded MetAP expressed in Escherichia coli
T1 sequence (P0AE18 whole entry): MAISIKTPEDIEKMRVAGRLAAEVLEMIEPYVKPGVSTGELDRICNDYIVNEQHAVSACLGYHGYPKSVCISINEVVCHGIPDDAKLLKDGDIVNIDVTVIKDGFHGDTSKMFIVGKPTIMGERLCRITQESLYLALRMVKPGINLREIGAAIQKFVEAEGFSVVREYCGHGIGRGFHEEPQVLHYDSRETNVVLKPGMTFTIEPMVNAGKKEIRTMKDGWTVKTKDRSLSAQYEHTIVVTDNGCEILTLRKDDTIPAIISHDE

[2] = biological target: T2, Methionine aminopeptidase (Escherichia coli K-12) (UniProt P0AE18); experiment: Inhibition of Mn2+ loaded MetAP expressed in Escherichia coli at upto 10 uM
T2 sequence (whole entry): T1 sequence (P0AE18 whole entry)

[3] = biological target: T2, Methionine aminopeptidase (Escherichia coli K-12); experiment: Inhibition of Co2+ loaded MetAP expressed in Escherichia coli at 10 uM

Work on CC(C)(C)c1ccc2nc(-c3cscn3)[nH]c2c1 yielded a pIC50 [1] of 5.41.
Work on Nc1ccc2nc(-c3ccccn3)[nH]c2c1 yielded a pIC50 [1] of 6.01.
With c1ccc(-c2nc3c[nH]cnc-3n2)nc1 the pIC50 [1] was 6.42 and the inhibition [2] was “inactive”.
In the case of Fc1ccc2nc(-c3ccccn3)[nH]c2c1, the inhibition [2] was “inactive”.
With O=C(c1ccccc1)c1ccc2[nH]c(-c3ccccn3)nc2c1 the inhibition [2] was “inactive”.
Cc1cc2nc(-c3ccccn3)[nH]c2cc1C was tested, and the pIC50 [1] was 5.61 and the inhibition [2] was “inactive”.
Cn1c(-c2cscn2)nc2ccccc21 was tested, and the inhibition [2] was “inactive”.
c1ccc(-c2nc3ccccc3[nH]2)nc1 was tested, and the pIC50 [1] was 6.24 and the inhibition [2] was “inactive”.
Cc1ccc2[nH]c(-c3ccccn3)nc2c1 gave a pIC50 [1] of 5.68.
CCCSc1ccc2[nH]c(NC(=O)OC)nc2c1 was tested, and the inhibition [3] was 15.4% and the inhibition [2] was “inactive”.
For c1ccc2[nH]c(Nc3nccs3)nc2c1, the pIC50 [1] was 6.27 and the inhibition [2] was “inactive”.
For c1cncc(-c2nc3ccccc3[nH]2)c1, the pIC50 [1] was under 5.00, the inhibition [3] was 4.21% and the inhibition [2] was “inactive”.
In the case of c1ccc2[nH]c(-c3cnccn3)nc2c1, the pIC50 [1] was 5.34 and the inhibition [2] was “inactive”.
With Nc1ccc2[nH]c(-c3ccccn3)nc2c1 the inhibition [2] was “inactive”.
CCCSc1ccc2nc(NC(=O)OC)[nH]c2c1 [ALBENDAZOLE] showed a pIC50 [1] of under 5.00.
O=C(c1ccccc1)c1ccc2nc(-c3ccccn3)[nH]c2c1 gave a pIC50 [1] of 6.39.
In the case of c1c[nH]c2nc(-c3cscn3)nc-2c1, the pIC50 [1] was 7.11 and the inhibition [2] was “inactive”.
Fc1ccc2[nH]c(-c3cscn3)nc2c1 was tested, and the inhibition [2] was “inactive”.
In the case of c1ccc(Cn2c(-c3ccccn3)nc3ccccc32)cc1, the pIC50 [1] was 6.00 and the inhibition [2] was “inactive”.
O=[N+]([O-])c1ccc2[nH]c(-c3ccccn3)nc2c1 was tested, and the pIC50 [1] was 6.79 and the inhibition [2] was “inactive”.
Work on COC(=O)Nc1nc2ccc(C(=O)c3ccccc3)cc2[nH]1 [MEBENDAZOLE] yielded a pIC50 [1] of under 5.00.
COC(=O)Nc1nc2cc(C(=O)c3ccccc3)ccc2[nH]1 was tested, and the inhibition [3] was 29% and the inhibition [2] was “inactive”.
In the case of CC(C)(C)c1ccc2[nH]c(-c3cscn3)nc2c1, the inhibition [2] was “inactive”.
In the case of O=c1cccc(-c2nc3ccccc3[nH]2)[nH]1, the pIC50 [1] was 5.87.
c1coc(-c2nc3ccccc3[nH]2)c1 [FUBERIDAZOLE] was tested, and the pIC50 [1] was under 5.00, the inhibition [3] was 10.4% and the inhibition [2] was “inactive”.
In the case of Nc1ccc2[nH]c(-c3cscn3)nc2c1, the pIC50 [1] was 5.47 and the inhibition [2] was “inactive”.
With c1ccc2[nH]c(-c3cscn3)nc2c1 [THIABENDAZOLE] the pIC50 [1] was 6.33 and the inhibition [2] was “inactive”.
For Cc1cc2nc(-c3cscn3)[nH]c2cc1C, the pIC50 [1] was under 5.00, the inhibition [3] was 47.8% and the inhibition [2] was “inactive”.
For O=C(c1ccccc1)c1ccc2[nH]c(-c3cscn3)nc2c1, the inhibition [2] was “inactive”.
In the case of CC(C)(C)c1ccc2[nH]c(-c3ccccn3)nc2c1, the inhibition [2] was “inactive”.
In the case of Oc1cccnc1-c1nc2ccccc2[nH]1, the pIC50 [1] was 6.11 and the inhibition [2] was “inactive”.
With c1ccc(Cn2c(-c3cscn3)nc3ccccc32)cc1 the inhibition [2] was “inactive”.
In the case of c1ccc(-c2nc3ccc[nH]c-3n2)nc1, the pIC50 [1] was 6.98 and the inhibition [2] was “inactive”.
For c1csc(-c2nc3ccccc3[nH]2)c1, the pIC50 [1] was under 5.00, the inhibition [3] was 5.36% and the inhibition [2] was “inactive”.
With c1ccc(-c2nc3cc[nH]cc-3n2)nc1 the pIC50 [1] was 6.26 and the inhibition [2] was “inactive”.
In the case of Clc1ccc2[nH]c(-c3cscn3)nc2c1, the pIC50 [1] was 5.29 and the inhibition [2] was “inactive”.
In the case of COC(=O)Nc1nc2cc(Sc3ccccc3)ccc2[nH]1, the inhibition [3] was 6.07% and the inhibition [2] was “inactive”.
COC(=O)Nc1nc2ccc(Sc3ccccc3)cc2[nH]1 [FENBENDAZOLE] showed a pIC50 [1] of under 5.00.
In the case of O=[N+]([O-])c1ccc2[nH]c(-c3cscn3)nc2c1, the inhibition [2] was “inactive”.
With COC(=O)Nc1nc2ccccc2[nH]1 [CARBENDAZIM] the pIC50 [1] was under 5.00, the inhibition [3] was 17.6% and the inhibition [2] was “inactive”.
NC(=S)Nc1nc2ccccc2[nH]1 showed a pIC50 [1] of 5.05.
With Cc1ccc2nc(-c3ccccn3)[nH]c2c1 the inhibition [2] was “inactive”.
Oc1cccc(-c2nc3ccccc3[nH]2)n1 was tested, and the inhibition [2] was “inactive”.
For N#Cc1ccc2[nH]c(-c3ccccn3)nc2c1, the pIC50 [1] was 6.37 and the inhibition [2] was “inactive”.
With N/C(S)=N/c1nc2ccccc2[nH]1 the inhibition [2] was “inactive”.
For Clc1ccc2nc(-c3ccccn3)[nH]c2c1, the pIC50 [1] was 5.77 and the inhibition [2] was “inactive”.
c1ccc(-c2nc3ncc[nH]c-3n2)nc1 was tested, and the pIC50 [1] was 6.62 and the inhibition [2] was “inactive”.
For c1cc2nc(-c3cscn3)[nH]c2cn1, the pIC50 [1] was 5.76.
Work on CC(C)(C)c1ccc2nc(-c3ccccn3)[nH]c2c1 yielded a pIC50 [1] of 5.59.
In the case of Fc1ccc2[nH]c(-c3ccccn3)nc2c1, the pIC50 [1] was 5.82.
In the case of c1cc2[nH]c(-c3cscn3)nc2cn1, the inhibition [2] was “inactive”.
Oc1ccccc1-c1nc2ccccc2[nH]1 was tested, and the pIC50 [1] was under 5.00, the inhibition [3] was 30.4% and the inhibition [2] was “inactive”.
For Cc1ccc2[nH]c(-c3cscn3)nc2c1, the inhibition [2] was “inactive”.
